The source of these data is patent US8426148B2, “Label-free methods using a resonant waveguide grating biosensor to determine GPCR signaling pathways” (Corning Incorporated, priority 2007, dated 2013).

Experiment [1] relates to histamine receptor subtype 1. The experiment can be described thus: RWG biosensor DMR assay: U73122 pretreatment, then histamine-induced DMR signal. In kind it is cell-based, Human. Particulars: quiescent A431 cells. From the text: (§1) The plate lid was handled automatically by the robotics.
Histamine is a natural agonist for endogenously expressed Gq-coupled receptor histamine receptor subtype 1 in A431 cells.

The next experiment deals with H1 histamine receptor. The experiment can be described thus: RWG biosensor DMR assay: forskolin pretreatment, then histamine-induced Gq response. In kind it is cell-based, Human. The conditions noted are these: quiescent A431 cells; forskolin pretreatment 1 h, then 100 nM histamine; read-out: IC50 of forskolin pretreatment, partial inhibition of histamine-induced response. The procedure: (§2) Cell culture—Human epidermoid carcinoma A431 cells (American Type Cell Culture) were grown in Dulbecco's modified Eagle's medium (DMEM) supplemented with 10% fetal bovine serum (FBS), 4.5 g/liter glucose, 2 mM glutamine, and antibiotics. About 1.8×10^4 cells at passage 3 to 8 suspended in 50 μL of the DMEM medium containing 10% FBS were placed in each well of a 384-well microplate, and were cultured at 37° C. under air/5% CO2 for about 1 day, followed by about 20 hr starvation through continuously culturing in the serum-free DMEM.
(§3) Optical biosensor system and cell assays—CORNING® EPIC® wavelength interrogation system was used. […] Once stable temperature is reached (typically within 1 hr), a sensor microplate is transferred by the robotics into the plate holder directly above the detection system, while a source plate is moved to an appropriate compartment so that it is readily addressable by the on-board liquid handling unit. […]
(§4) For kinetic assays, the cells were washed with HBSS (Hanks Balanced Salt Solution with 20 mM HEPES) buffer. After 1 hour incubation within the detection system, the sensor plate was scanned and a baseline response was recorded. Then, compound solutions were transferred into the sensor plate using the on-board liquid handling system, and the cell responses were then recorded for another period of time. […]

In experiment [2] the test system is adenylate cyclase. Particulars: read-out: IC50 of histamine pretreatment against the forskolin response, quiescent A431 cells, then 1 μM forskolin, slight inhibition. The procedure:
as §2, §3, §4

Experiment [3] deals with adenylate cyclase. The experiment can be described thus: RWG biosensor DMR assay: NECA pretreatment, then forskolin-induced response. The class given is cell-based, Human. The conditions noted are these: quiescent A431 cells; NECA pretreatment 1 h, then 1 μM forskolin; read-out: IC50 of NECA pretreatment against the forskolin-induced response. As for the experimental part: as §1
Similarly, pretreatment of A431 cells with various concentrations of NECA for 1 h desensitizes adenylate cyclase and attenuates the forskolin-induced responses (FIG. 3B). […] Although not limited by theory a possible mechanism of cross-talk between these two pathways is that upon activation of adenylate cyclase by forskolin, cAMP is produced and activates PKA. PKA in turn may phosphorylate the Gs receptors, and cause complete inhibition of the Gs-mediated response. Accordingly, FIGS. 3A and 3B, respectively, illustrate: 3A) forskolin pretreatment on the NECA-induced Gs response; and 3B) of the effects NECA pretreatment on forskolin-induced responses in quiescent A431 cells.

Structures are written as SMILES. Read-outs that look alike come from different tables or passages of the source.

`COc1ccc2c(c1)CC[C@@H]1[C@@H]2CC[C@]2(C)[C@@H](NCCCCCCN3C(=O)C=CC3=O)CC[C@@H]12` [U73122, 1-[6-[[17β-3-methoxyestra-1,3,5(10)-trien-17-yl]amino]hexyl]-1H-pyrrole-2,5-dione]: the “effect of U73122 pretreatment on histamine-induced DMR response” value in experiment [1] (U73122 0-228 μM, then 1,000 nM histamine) was “dose-dependent inhibition of the histamine-induced DMR response”. Further, the “effect of U73122 at high doses on histamine response (P-DMR amplitude)” value in experiment [1] (high doses of U73122, 1,000 nM histamine) is listed as “completely inhibit the histamine response”.

In general, IC50 refers to the concentration that gives 50% inhibition. As for `C=C[C@@]1(C)CC(=O)[C@]2(O)[C@@]3(C)[C@@H](O)CCC(C)(C)[C@@H]3[C@H](O)[C@H](OC(C)=O)[C@@]2(C)O1` [forskolin, Forskolin], the IC50 in the experiment with H1 histamine receptor is about 184 nM.

As for `NCCc1c[nH]cn1` [histamine, Histamine], the IC50 with adenylate cyclase [2] turned out to be 301 nM.

For `CCNC(=O)[C@H]1O[C@@H](n2cnc3c(N)ncnc32)[C@H](O)[C@@H]1O` [NECA, N-ethyladenosine-5′-uronic acid], the IC50 on adenylate cyclase [3] is 1.3 nM.
